Laboratory results reported in ChEMBL document CHEMBL3132797, “Synthesis and biological evaluation of substituted N-alkylphenyl-3,5-dinitrobenzamide analogs as anti-TB agents” (Medchemcomm, 2014).
Values after ≈ are worked out from the molar mass of the structure shown.

Legend:
[1] = system: Mycobacterium tuberculosis; experiment: Antimycobacterial activity against Mycobacterium tuberculosis H37Rv ATCC 27294 by broth dilution method; type: functional
[2] = Selectivity index, ratio of IC50 for mouse J774 cells to MIC for Mycobacterium tuberculosis H37Rv ATCC 27294; type: toxicity, cell-based; settings: read-out: Selectivity Index
J774 [3] = experiment: Cytotoxicity against mouse J774 cells after 24 hrs by MTT assay; type: cell-based; settings: J774, 24 h
[4] = Elimination half life in Balb mouse at 2.5 mg/kg, ip; type: ADME, organism-based; parameters: dose 2.5 mg/kg, route intraperitoneal; settings: in vivo, read-out: beta t1/2 (converted)
[5] = system: Mycobacterium tuberculosis; experiment: Antimycobacterial activity against Mycobacterium tuberculosis H37Rv ATCC 27294 infected in mouse J774 cells assessed as intracellular killing after 48 hrs by colony formation assay; type: functional; settings: H37Rv ATCC 27294, 48 h
[6] = AUC (0 to t) in Balb mouse at 2.5 mg/kg, ip; type: ADME, organism-based; parameters: dose 2.5 mg/kg, route intraperitoneal; settings: plasma
[7] = AUC (0 to t) in Balb mouse at 1 mg/kg, iv; type: ADME, organism-based; parameters: dose 1 mg/kg, route intravenous; settings: plasma
[8] = Cmax in Balb mouse at 2.5 mg/kg, ip; type: ADME, organism-based; parameters: dose 2.5 mg/kg, route intraperitoneal; settings: in vivo
[9] = Cmax in Balb mouse at 1 mg/kg, iv; type: ADME, organism-based; parameters: dose 1 mg/kg, route intravenous; settings: in vivo
[10] = Elimination half life in Balb mouse at 1 mg/kg, iv; type: ADME, organism-based; parameters: dose 1 mg/kg, route intravenous; settings: in vivo, read-out: beta t1/2 (converted)
[11] = Bioavailability in Balb mouse at 2.5 mg/kg, ip; type: ADME, organism-based; settings: in vivo
[12] = Tmax in Balb mouse at 2.5 mg/kg, ip; type: ADME, organism-based; parameters: dose 2.5 mg/kg, route intraperitoneal; settings: in vivo
[13] = Clearance in Balb mouse at 1 mg/kg, iv; type: ADME, organism-based; parameters: dose 1 mg/kg, route intravenous; settings: in vivo
[14] = system: Mycobacterium tuberculosis; experiment: Bactericidal activity against Mycobacterium tuberculosis H37Rv ATCC 27294 by broth dilution method; type: functional
J774 [15] = experiment: Cytotoxicity against mouse J774 cells at 20 ug/ml after 24 hrs by MTT assay; type: cell-based; settings: j774, 24 h

Which MIC [1] does the source give for `O=C(Nc1cccc(F)c1)c1cc([N+](=O)[O-])cc([N+](=O)[O-])c1` here?
Its MIC is 3.28 µM (≈ 1 µg/mL).

With `Cc1ccc([C@H](C)NC(=O)c2cc([N+](=O)[O-])c(C)c([N+](=O)[O-])c2)cc1` as the molecule, how does the MIC [1] read?
The MIC was 11.7 µM (≈ 4 µg/mL).

For `C[C@H](c1ccccc1)N(C)C(=O)c1cc([N+](=O)[O-])cc([N+](=O)[O-])c1`, which MIC [1] is on record?
Its MIC is 1.52 µM (≈ 0.501 µg/mL).

For `Cc1ccc([C@@H](C)NC(=O)c2cc([N+](=O)[O-])c(C)c([N+](=O)[O-])c2)cc1`, which MIC [1] is on record?
The MIC was 0.09 µM (≈ 0.0309 µg/mL).

And the selectivity ratio [2]?
Its selectivity ratio is greater than 666.

What about the IC50 (J774 [3]) of the same molecule?
Its IC50 is greater than 58.2 µM.

What about the half-life [4] of the same molecule?
Its half-life is 97.8 min.

And the MIC [5]?
The MIC was 1.44 µM (≈ 0.494 µg/mL).

And the AUC(0-t) [6]?
Its AUC(0-t) is 0.431 µM·h.

And the AUC(0-t) [7]?
Its AUC(0-t) is 0.352 µM·h.

And the Cmax [8]?
The Cmax was 177 nM.

And the Cmax [9]?
The Cmax was 673 nM.

And the half-life [10]?
Its half-life is 55.8 min.

What about the bioavailability [11] of the same molecule?
Its bioavailability is 49%.

And the Tmax [12]?
Its Tmax is 30 min.

What about the clearance [13] of the same molecule?
Its clearance is 134 mL/min/kg.

And the MBC [14]?
The MBC was 0.72 µM (≈ 0.247 µg/mL).

What about the Activity (J774 [15]) of the same molecule?
Its Activity is “Non-toxic”.

For `O=C(NC1CCCC1)c1cc([N+](=O)[O-])cc([N+](=O)[O-])c1`, which MIC [1] is on record?
Its MIC is 0.9 µM (≈ 0.251 µg/mL).

With `C[C@H](NC(=O)c1cc([N+](=O)[O-])cc([N+](=O)[O-])c1)c1ccccc1` as the molecule, how does the MIC [1] read?
The MIC was greater than 3.17 µM.

Which MIC [1] does the source give for `COc1ccc(CCNC(=O)c2cc([N+](=O)[O-])cc([N+](=O)[O-])c2)cc1` here?
Its MIC is 1.45 µM (≈ 0.501 µg/mL).

For `Cc1ccc(CNC(=O)c2cc([N+](=O)[O-])cc([N+](=O)[O-])c2)cc1`, which MIC [1] is on record?
Its MIC is 3.17 µM (≈ 0.999 µg/mL).

With `CCCCC[C@H](C)NC(=O)c1cc([N+](=O)[O-])cc([N+](=O)[O-])c1` as the molecule, how does the MIC [1] read?
The MIC was 1.62 µM (≈ 0.501 µg/mL).

With `Cc1c([N+](=O)[O-])cc(C(=O)N[C@H](C)c2ccccc2)cc1[N+](=O)[O-]` as the molecule, how does the MIC [1] read?
Its MIC is 0.36 µM (≈ 0.119 µg/mL).

With `C[C@@H](NC(=O)c1cc([N+](=O)[O-])cc([N+](=O)[O-])c1)c1ccc(F)cc1` as the molecule, how does the MIC [1] read?
Its MIC is greater than 12 µM.

For `O=C(NCc1ccccc1)c1cc([N+](=O)[O-])cc([N+](=O)[O-])c1`, which MIC [1] is on record?
Its MIC is 0.8 µM (≈ 0.241 µg/mL).

What does the source list for `C[C@@H](NC(=O)c1cc([N+](=O)[O-])cc([N+](=O)[O-])c1)c1ccccc1`?
MIC [1]: 0.19 µM (≈ 0.0599 µg/mL); selectivity ratio [2]: > 333; IC50 (J774 [3]): > 63.5 µM; MIC [5]: 0.76 µM (≈ 0.24 µg/mL); MBC [14]: 0.19 µM (≈ 0.0599 µg/mL); Activity (J774 [15]): Non-toxic

Which MIC [1] does the source give for `Cc1c([N+](=O)[O-])cc(C(=O)N[C@@H](C)c2ccc(F)cc2)cc1[N+](=O)[O-]` here?
The MIC was 0.04 µM (≈ 0.0139 µg/mL).

And the selectivity ratio [2]?
The selectivity ratio was greater than 1330.

And the IC50 (J774 [3])?
The IC50 was greater than 57.6 µM.

And the half-life [4]?
The half-life was 64.8 min.

And the MIC [5]?
Its MIC is less than 0.64 µM.

What about the AUC(0-t) [6] of the same molecule?
The AUC(0-t) was 0.351 µM·h.

And the AUC(0-t) [7]?
Its AUC(0-t) is 0.374 µM·h.

And the Cmax [8]?
The Cmax was 216 nM.

What about the Cmax [9] of the same molecule?
The Cmax was 711 nM.

What about the half-life [10] of the same molecule?
Its half-life is 54 min.

What about the bioavailability [11] of the same molecule?
The bioavailability was 35%.

And the Tmax [12]?
The Tmax was 15 min.

And the clearance [13]?
The clearance was 111 mL/min/kg.

What about the MBC [14] of the same molecule?
The MBC was less than 0.04 µM.

What about the Activity (J774 [15]) of the same molecule?
The Activity was “Non-toxic”.

For `O=C(Nc1ccccc1C(F)(F)F)c1cc([N+](=O)[O-])cc([N+](=O)[O-])c1`, which MIC [1] is on record?
Its MIC is 1.41 µM (≈ 0.501 µg/mL).

Which MIC [1] does the source give for `COc1ccc([C@H](C)NC(=O)c2cc([N+](=O)[O-])cc([N+](=O)[O-])c2)cc1` here?
Its MIC is 0.35 µM (≈ 0.121 µg/mL).

Which MIC [1] does the source give for `COc1ccc([C@@H](C)NC(=O)c2cc([N+](=O)[O-])c(C)c([N+](=O)[O-])c2)cc1` here?
The MIC was 0.7 µM (≈ 0.252 µg/mL).

Which MIC [1] does the source give for `C[C@H](NC(=O)c1cc([N+](=O)[O-])cc([N+](=O)[O-])c1)c1ccc(Cl)cc1` here?
Its MIC is 1.43 µM (≈ 0.5 µg/mL).

With `Cc1c([N+](=O)[O-])cc(C(=O)N[C@H](C)c2ccc(F)cc2)cc1[N+](=O)[O-]` as the molecule, how does the MIC [1] read?
Its MIC is 0.17 µM (≈ 0.059 µg/mL).

What about the selectivity ratio [2] of the same molecule?
The selectivity ratio was greater than 333.

And the IC50 (J774 [3])?
Its IC50 is greater than 57.6 µM.

And the MIC [5]?
Its MIC is 0.71 µM (≈ 0.247 µg/mL).

And the MBC [14]?
The MBC was 0.17 µM (≈ 0.059 µg/mL).

What about the Activity (J774 [15]) of the same molecule?
Its Activity is “Non-toxic”.

Which MIC [1] does the source give for `CC[C@H](C)NC(=O)c1cc([N+](=O)[O-])cc([N+](=O)[O-])c1` here?
Its MIC is greater than 3.74 µM.

Which MIC [1] does the source give for `N#Cc1ccccc1NC(=O)c1cc([N+](=O)[O-])cc([N+](=O)[O-])c1` here?
Its MIC is 6.4 µM (≈ 2 µg/mL).

For `COc1ccc([C@H](C)NC(=O)c2cc([N+](=O)[O-])c(C)c([N+](=O)[O-])c2)cc1`, which MIC [1] is on record?
The MIC was 1.39 µM (≈ 0.499 µg/mL).

For `O=C(NCCc1ccccc1)c1cc([N+](=O)[O-])cc([N+](=O)[O-])c1`, which MIC [1] is on record?
The MIC was 0.79 µM (≈ 0.249 µg/mL).

And the selectivity ratio [2]?
Its selectivity ratio is greater than 80.

And the IC50 (J774 [3])?
The IC50 was greater than 63.5 µM.

And the MIC [5]?
The MIC was 3.16 µM (≈ 0.996 µg/mL).

And the MBC [14]?
Its MBC is 0.79 µM (≈ 0.249 µg/mL).

And the Activity (J774 [15])?
The Activity was “Non-toxic”.

With `O=C(Nc1ccccc1F)c1cc([N+](=O)[O-])cc([N+](=O)[O-])c1` as the molecule, how does the MIC [1] read?
Its MIC is 26.1 µM (≈ 7.96 µg/mL).

With `O=C(Nc1cc(Cl)cc(Cl)c1)c1cc([N+](=O)[O-])cc([N+](=O)[O-])c1` as the molecule, how does the MIC [1] read?
Its MIC is 22.5 µM (≈ 8.02 µg/mL).

For `O=C(Nc1ccc(OC(F)(F)F)cc1)c1cc([N+](=O)[O-])cc([N+](=O)[O-])c1`, which MIC [1] is on record?
The MIC was 2.7 µM (≈ 1 µg/mL).
